From patent US20040014047A1, “Antisense modulation of LIM domain kinase 1 expression” (Isis Pharmaceuticals Inc., priority 2002, published 2004)
Strand notation (5' to 3'): a small letter for the sugar, then the base; units joined by * are phosphorothioate-linked, units joined directly phosphodiester-linked; [ ] holds rarer units or linkages, { } end groups; capitals alone tell only the bases. e = 2'-O-(2-methoxyethyl) (MOE); [5mC] = 5-methylcytosine; d = 2'-deoxy (DNA)

System: human LIM domain kinase 1 mRNA
Assay: Antisense inhibition of human LIM domain kinase 1 mRNA levels, quantitative real-time PCR, A549 cells (screen)
Format: cell-based
Conditions: for % INHIB (inhibition of human LIM domain kinase 1 mRNA levels): quantitative real-time PCR, averages from two experiments, screening concentration not given (50 nM to 300 nM used herein); for inhibition of human LIM domain kinase 1 expression (text summary of Table 1): real-time PCR, bound stated
Procedure: When cells reached 70% confluency, they were treated with oligonucleotide. […] Cells were harvested 16-24 hours after oligonucleotide treatment.
Vacuum was applied for 1 minute.
PCR reagents were obtained from Invitrogen Corporation, (Carlsbad, Calif.).
Total RNA is quantified using RiboGreenTM RNA quantification reagent from Molecular Probes.
Probes and primers to human LIM domain kinase 1 were designed to hybridize to a human LIM domain kinase 1 sequence, using published sequence information (GenBank accession number D26309.1, incorporated herein as SEQ ID NO:4). For human LIM domain kinase 1 the PCR primers were: forward primer: […] (SEQ ID NO: 5) reverse primer: […] (SEQ ID NO: 6) and the PCR probe was: FAM-[…]-TAMRA (SEQ ID NO: 7) where FAM is the fluorescent dye and TAMRA is the quencher dye.
All cytidine residues are 5-methylcytidines. […] Data are averages from two experiments in which A549 cells were treated with the oligonucleotides of the present invention. […] If present, “N.D.” indicates “no data”.

Substance	% INHIB (inhibition of human LIM domain kinase 1 mRNA levels)	inhibition of human LIM domain kinase 1 expression (text summary of Table 1)
206181 (antisense eT*e[5mC]*eT*eT*e[5mC]*dA*d[5mC]*dA*dT*d[5mC]*dT*dG*dG*dG*d[5mC]*eT*e[5mC]*eA*eT*eG) [compound 206181]	54%	
cgccatagcgggcccagtag (e[5mC]*eG*e[5mC]*e[5mC]*eA*dT*dA*dG*d[5mC]*dG*dG*dG*d[5mC]*d[5mC]*d[5mC]*eA*eG*eT*eA*eG; antisense) [ISIS 206176]		at least 65%
206161 (eA*eA*e[5mC]*e[5mC]*eT*d[5mC]*dA*dT*dG*d[5mC]*dA*d[5mC]*dT*d[5mC]*dG*eA*e[5mC]*eG*eG*eG; antisense) [compound 206161]	82%	
206197 (antisense eG*e[5mC]*eA*eT*e[5mC]*dG*d[5mC]*dA*dT*dG*dA*d[5mC]*d[5mC]*dT*dT*e[5mC]*eA*e[5mC]*e[5mC]*eT) [compound 206197]	71%	
206225 (antisense eG*eG*eA*eG*eT*dG*dA*dA*dA*dG*d[5mC]*dA*d[5mC]*d[5mC]*d[5mC]*eA*eG*e[5mC]*eT*eG) [compound 206225]	74%	
206188 (antisense eT*e[5mC]*eG*eA*eG*dG*dG*dT*d[5mC]*dA*dG*d[5mC]*dT*dG*dG*eA*eG*e[5mC]*eA*eG) [compound 206188]	71%	
ccacctcccgcggaggaatc (e[5mC]*e[5mC]*eA*e[5mC]*e[5mC]*dT*d[5mC]*d[5mC]*d[5mC]*dG*d[5mC]*dG*dG*dA*dG*eG*eA*eA*eT*e[5mC]; antisense) [ISIS 206208]		at least 65%
ccaggtgagtgtgcaaggca (e[5mC]*e[5mC]*eA*eG*eG*dT*dG*dA*dG*dT*dG*dT*dG*d[5mC]*dA*eA*eG*eG*e[5mC]*eA; antisense) [ISIS 206230]		at least 65%
206179 (antisense eG*e[5mC]*eA*eG*eT*dG*d[5mC]*d[5mC]*d[5mC]*dG*d[5mC]*dA*dG*dT*dA*e[5mC]*eA*eG*e[5mC]*eT) [compound 206179]	75%	
206226 (antisense eT*eA*eG*eG*eT*d[5mC]*d[5mC]*d[5mC]*dA*d[5mC]*dA*dG*d[5mC]*d[5mC]*d[5mC]*e[5mC]*eT*eG*eA*eG) [compound 206226]	9%	
cttcctctcccatacgttct (e[5mC]*eT*eT*e[5mC]*e[5mC]*dT*d[5mC]*dT*d[5mC]*d[5mC]*d[5mC]*dA*dT*dA*d[5mC]*eG*eT*eT*e[5mC]*eT; antisense) [ISIS 206169]		at least 65%
ggcgtgccattgatttccaa (eG*eG*e[5mC]*eG*eT*dG*d[5mC]*d[5mC]*dA*dT*dT*dG*dA*dT*dT*eT*e[5mC]*e[5mC]*eA*eA; antisense) [ISIS 206186]		at least 65%
206189 (antisense eG*eT*eT*eT*e[5mC]*dT*dG*d[5mC]*d[5mC]*dG*dG*dG*d[5mC]*dA*dG*eA*eG*e[5mC]*eT*eG) [compound 206189]	81%	
agtagtccttcttgcagaag (eA*eG*eT*eA*eG*dT*d[5mC]*d[5mC]*dT*dT*d[5mC]*dT*dT*dG*d[5mC]*eA*eG*eA*eA*eG; antisense) [ISIS 206173]		at least 65%
206187 (antisense eT*e[5mC]*eA*eG*e[5mC]*dT*dG*dG*dA*dG*d[5mC]*dA*dG*dG*d[5mC]*eG*eG*e[5mC]*eT*eG) [compound 206187]	60%	
206192 (antisense eA*eG*e[5mC]*eT*e[5mC]*d[5mC]*dT*d[5mC]*dA*dA*dG*dA*d[5mC]*dA*dG*eG*eT*eT*eT*e[5mC]) [compound 206192]	54%	
tccttcttgcagaagagctg (eT*e[5mC]*e[5mC]*eT*eT*d[5mC]*dT*dT*dG*d[5mC]*dA*dG*dA*dA*dG*eA*eG*e[5mC]*eT*eG; antisense) [ISIS 206172]		at least 65%
cctccagggagctatggacc (e[5mC]*e[5mC]*eT*e[5mC]*e[5mC]*dA*dG*dG*dG*dA*dG*d[5mC]*dT*dA*dT*eG*eG*eA*e[5mC]*e[5mC]; antisense) [ISIS 206210]		at least 65%
ctggctgtccatgctcttga (e[5mC]*eT*eG*eG*e[5mC]*dT*dG*dT*d[5mC]*d[5mC]*dA*dT*dG*d[5mC]*dT*e[5mC]*eT*eT*eG*eA; antisense) [ISIS 206200]		at least 65%

Substance	% INHIB (inhibition of human LIM domain kinase 1 mRNA levels)	inhibition of human LIM domain kinase 1 expression (text summary of Table 1)
ttcttccctccaggtgcaac (eT*eT*e[5mC]*eT*eT*d[5mC]*d[5mC]*d[5mC]*dT*d[5mC]*d[5mC]*dA*dG*dG*dT*eG*e[5mC]*eA*eA*e[5mC]; antisense) [ISIS 206166]		at least 65%
206178 (antisense eA*eG*eT*eA*e[5mC]*dA*dG*d[5mC]*dT*dT*dG*dG*dA*dG*dT*eG*e[5mC]*eT*e[5mC]*e[5mC]) [compound 206178]	69%	
206191 (antisense e[5mC]*eT*e[5mC]*eA*eA*dG*dA*d[5mC]*dA*dG*dG*dT*dT*dT*d[5mC]*eT*eG*e[5mC]*e[5mC]*eG) [compound 206191]	62%	
206236 (antisense e[5mC]*eT*eG*eG*eA*d[5mC]*d[5mC]*dT*dA*d[5mC]*d[5mC]*dT*d[5mC]*dG*d[5mC]*eA*e[5mC]*eA*eG*eG) [compound 206236]	43%	
206172 (eT*e[5mC]*e[5mC]*eT*eT*d[5mC]*dT*dT*dG*d[5mC]*dA*dG*dA*dA*dG*eA*eG*e[5mC]*eT*eG; antisense) [compound 206172]	76%	
206237 (antisense eG*eT*e[5mC]*e[5mC]*eT*dG*d[5mC]*d[5mC]*d[5mC]*d[5mC]*dA*d[5mC]*dA*dG*dA*e[5mC]*eT*e[5mC]*eA*eG) [compound 206237]	62%	
206204 (antisense e[5mC]*eA*eT*eT*e[5mC]*dT*dT*dG*dT*dT*d[5mC]*dT*d[5mC]*dG*d[5mC]*eG*eG*eA*e[5mC]*e[5mC]) [compound 206204]	81%	
gccattgatttccaagatcc (eG*e[5mC]*e[5mC]*eA*eT*dT*dG*dA*dT*dT*dT*d[5mC]*d[5mC]*dA*dA*eG*eA*eT*e[5mC]*e[5mC]; antisense) [ISIS 206185]		at least 65%
acatctgggctcatgcagcc (eA*e[5mC]*eA*eT*e[5mC]*dT*dG*dG*dG*d[5mC]*dT*d[5mC]*dA*dT*dG*e[5mC]*eA*eG*e[5mC]*e[5mC]; antisense) [ISIS 206180]		at least 65%
gcagtgcccgcagtacagct (eG*e[5mC]*eA*eG*eT*dG*d[5mC]*d[5mC]*d[5mC]*dG*d[5mC]*dA*dG*dT*dA*e[5mC]*eA*eG*e[5mC]*eT; antisense) [ISIS 206179]		at least 65%
gtcaacctcatgcactcgac (eG*eT*e[5mC]*eA*eA*d[5mC]*d[5mC]*dT*d[5mC]*dA*dT*dG*d[5mC]*dA*d[5mC]*eT*e[5mC]*eG*eA*e[5mC]; antisense) [ISIS 206163]		at least 65%
gtggccctggctcagtcggg (eG*eT*eG*eG*e[5mC]*d[5mC]*d[5mC]*dT*dG*dG*d[5mC]*dT*d[5mC]*dA*dG*eT*e[5mC]*eG*eG*eG; antisense) [ISIS 206207]		at least 65%
206169 (e[5mC]*eT*eT*e[5mC]*e[5mC]*dT*d[5mC]*dT*d[5mC]*d[5mC]*d[5mC]*dA*dT*dA*d[5mC]*eG*eT*eT*e[5mC]*eT; antisense) [compound 206169]	67%	
206211 (antisense eT*e[5mC]*eT*eG*e[5mC]*d[5mC]*d[5mC]*dT*dG*dA*dT*dG*dT*dG*d[5mC]*eG*e[5mC]*e[5mC]*e[5mC]*eT) [compound 206211]	59%	
206227 (antisense e[5mC]*eT*e[5mC]*eA*eG*dA*d[5mC]*d[5mC]*d[5mC]*dT*dT*dG*dA*dG*dT*eT*eA*e[5mC]*eT*eG) [compound 206227]	68%	
206198 (antisense eT*e[5mC]*e[5mC]*eA*eG*dG*d[5mC]*dA*dT*d[5mC]*dG*d[5mC]*dA*dT*dG*eA*e[5mC]*e[5mC]*eT*eT) [compound 206198]	86%	
206202 (antisense eG*eT*e[5mC]*eT*e[5mC]*dG*dG*dT*dG*dG*dA*dT*dG*dA*dT*eG*eT*eT*e[5mC]*eA) [compound 206202]	69%	
206175 (antisense eT*eA*eG*e[5mC]*eG*dG*dG*d[5mC]*d[5mC]*d[5mC]*dA*dG*dT*dA*dG*eT*e[5mC]*e[5mC]*eT*eT) [compound 206175]	83%	
ctgctgcagccgtatgaaaa (e[5mC]*eT*eG*e[5mC]*eT*dG*d[5mC]*dA*dG*d[5mC]*d[5mC]*dG*dT*dA*dT*eG*eA*eA*eA*eA; antisense) [ISIS 206162]		at least 65%
